pEC50: −log10 of the molar value. Where two headings read alike, the source gives them in different places.
Columns and labels:
[1] = tested on: LASV-p; assay: microbe, parasite or virus in culture; format: cell-based, Lassa (LASV); conditions: Vesicular stomatitis virus, Vero, read-out: LASV-p EC50
[2] = tested on: MACV-p; assay: organism not typed; format: cell-based, Machupo (MACV); conditions: Vero, read-out: MACV-p EC50
[3] = tested on: JUNV-p; assay: organism not typed; format: cell-based, Junin (JUNV); conditions: Vero, read-out: JUNV-p EC50
[4] = tested on: TCRV-p; assay: organism not typed; format: cell-based; conditions: read-out: TCRV-p EC50
[5] = tested on: GTOV-p; assay: organism not typed; format: cell-based, Guanarito (GTOV); conditions: Vero, read-out: GTOV-p EC50
[6] = tested on: VSV-p; assay: microbe, parasite or virus in culture; format: cell-based; conditions: Vesicular stomatitis virus, Vero, read-out: VSV-p EC50
[7] = tested on: native replicating Tacaribe (TCRV) virus; assay: microbe, parasite or virus in culture; format: cell-based; conditions: Mammarenavirus tacaribeense, Vero, 120 h, read-out: TCRV EC50
[8] = tested on: replicative LASV; assay: microbe, parasite or virus in culture; format: cell-based, Lassa Virus; conditions: Mammarenavirus lassaense
[9] = tested on: replicative LASV; assay: microbe, parasite or virus in culture; format: cell-based, Lassa Virus; conditions: for EC90: Mammarenavirus lassaense
[10] = biological target: hERG channel (Homo sapiens, UniProt Q12809); conditions: pH 7.4
Sequence of hERG channel (Q12809 whole entry): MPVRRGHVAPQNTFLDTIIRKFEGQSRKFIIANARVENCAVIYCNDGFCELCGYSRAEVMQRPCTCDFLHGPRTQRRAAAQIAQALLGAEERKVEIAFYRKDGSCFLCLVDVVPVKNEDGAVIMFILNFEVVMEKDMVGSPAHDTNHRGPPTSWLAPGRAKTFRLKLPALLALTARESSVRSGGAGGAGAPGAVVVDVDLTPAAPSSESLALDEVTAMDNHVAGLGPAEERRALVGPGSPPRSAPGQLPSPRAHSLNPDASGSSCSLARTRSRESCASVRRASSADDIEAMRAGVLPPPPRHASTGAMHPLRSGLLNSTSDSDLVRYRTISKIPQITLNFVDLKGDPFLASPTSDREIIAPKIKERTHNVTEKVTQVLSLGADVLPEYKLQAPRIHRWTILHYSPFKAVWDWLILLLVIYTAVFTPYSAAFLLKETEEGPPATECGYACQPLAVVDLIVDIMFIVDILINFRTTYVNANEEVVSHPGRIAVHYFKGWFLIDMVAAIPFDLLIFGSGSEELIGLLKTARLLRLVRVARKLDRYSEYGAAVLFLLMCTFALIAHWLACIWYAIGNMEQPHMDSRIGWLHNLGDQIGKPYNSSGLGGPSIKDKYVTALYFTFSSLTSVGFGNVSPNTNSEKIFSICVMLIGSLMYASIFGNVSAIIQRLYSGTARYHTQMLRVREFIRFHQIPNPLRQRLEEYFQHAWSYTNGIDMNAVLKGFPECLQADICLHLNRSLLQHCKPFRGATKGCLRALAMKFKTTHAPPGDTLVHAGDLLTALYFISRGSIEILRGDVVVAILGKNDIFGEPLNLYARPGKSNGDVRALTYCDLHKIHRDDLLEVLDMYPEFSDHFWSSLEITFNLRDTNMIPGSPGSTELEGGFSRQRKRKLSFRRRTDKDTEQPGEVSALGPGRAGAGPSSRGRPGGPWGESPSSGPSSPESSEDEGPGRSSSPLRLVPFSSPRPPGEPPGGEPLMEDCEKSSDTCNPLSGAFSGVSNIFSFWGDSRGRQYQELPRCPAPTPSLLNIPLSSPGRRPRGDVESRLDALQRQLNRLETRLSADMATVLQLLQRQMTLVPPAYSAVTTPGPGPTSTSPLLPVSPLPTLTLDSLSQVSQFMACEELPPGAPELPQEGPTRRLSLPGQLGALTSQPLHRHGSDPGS

[11] = mouse, in vivo, 30 mg/kg
[12] = mouse, in vivo, po
[13] = in vivo; conditions: mouse
[14] = in vitro; conditions: African green monkey
[15] = 1 h, pH 7.4
[16] = 1 h, pH 7.4; remark: listed apart in the source
[17] = 1 h, pH 7.4; remark: listed apart in the source
[18] = 1 h, pH 7.4; remark: listed apart in the source
[19] = guinea pig, 1 h, pH 7.4
[20] = 1 h, pH 7.4; remark: listed apart in the source
[21] = read-out: EC50 in the plaque assay format
[22] = read-out: EC90 in the VYR assay format

Row | Compound | pEC50 [1] | pEC50 [2] | pEC50 [3] | pEC50 ([4]; Vero) | pEC50 [4] | pEC50 [5] | pEC50 [6] | pEC50 [7] | pEC50 [8, 21] | pEC50 ([8]; read-out: Plaque Assay EC50) | Sl90 [9] | EC90 ([9]; Vero, read-out: VYR Assay EC90) | EC90 [9, 22] | % Inhibition at 3 uM [10] | CC50 [14] | Percent parent compound remaining at 60 minutes in liver microsomes, Mouse [15] | Percent parent compound remaining at 60 minutes in liver microsomes, Human [18] | Percent parent compound remaining at 60 minutes in liver microsomes, Guinea [19] | also measured
1 | Cc1cc2ncc(-c3ccc(OC(C)(C)C)cc3)n2cc1-c1ccc(OC(C)C)cc1 [Example B7, 3-(4-(tert-butoxy)phenyl)-6-(4-isopropoxyphenyl)-7-methylimidazo[1,2-a]pyridine] | 9.05 | 9.38 | 9.51 | 9.80 | 9.70 | 9.92 | < 5.00 | 9.13 | 8.52 to 9.00 | > 8.52 | >11,000 | < 1 nM | 1 to 3 nM | <10% | 8140 nM |  |  |  | Oral C-Max [11]: 5.5 µg/mL; Oral T-Max [11]: 2 h; 24 hr liver concentration [12]: 63.4 ug/g liver; 24 hr plasma concentration [12]: 9.1 µg/mL; Vd [13]: 35.7 L/kg; clearance [13]: 13.7 mL/min/kg; AUC(0-t) ([13]; po, 30 mg/kg): 70400 ng·h/mL; bioavailability ([13]; po, 30 mg/kg): 30%
2 | Cc1cc2ncc(-c3ccc(C(C)(C)O)cc3)n2cc1-c1ccc(OC(C)C)cc1 [Example B8, 2-(4-(6-(4-isopropoxyphenyl)-7-methylimidazo[1,2-a]pyridin-3-yl)phenyl)propan-2-ol] | 8.54 | 9.21 | 9.12 | 9.49 | 9.49 | 9.03 | < 5.00 | 8.67 | 8.52 to 9.00 | > 8.52 | >9,000 | < 3 nM | 1 to 3 nM | <10% | 27800 nM | 77.5% | 87.6% | 67.7% | Percent parent compound remaining at 60 minutes in liver microsomes, Monkey [16]: 33.7%; Percent parent compound remaining at 60 minutes in liver microsomes, Dog [17]: 77.57%; Percent parent compound remaining at 60 minutes in liver microsomes, Rat [20]: 93%
3 | CC(C)Oc1ccc(-c2cc3c(cc2Cl)nnn3-c2ccc(OC(C)C)cc2)cc1 [Example C11, 5-chloro-1,6-bis(4-isopropoxyphenyl)-1H-benzo[d][1,2,3]triazole] | 8.64 | 9.72 | 10.00 | 9.11 | 9.21 |  | < 5.00 | 9.08 |  |  |  |  |  | <10% | > 100000 nM | >95% | >95% | >95% | 
4 | Cc1c(-c2ccc(OC(C)C)cc2)ccc2nnn(-c3ccc(OC(C)C)cc3)c12 [Example C14, 1,6-bis(4-isopropoxyphenyl)-7-methyl-1H-benzo[d][1,2,3]triazole] | 8.61 | 9.55 | 9.77 | 8.33 |  |  | < 5.00 |  |  |  |  |  |  |  | > 100000 nM | >95% | >95% | >95% | 
5 | CC(C)Oc1ccc(-n2nnc3ccc(-c4ccc(C(C)(C)O)cc4)cc32)cc1 [Example C16, 2-(4-(1-(4-isopropoxyphenyl)-1H-benzo[d][1,2,3]triazol-6-yl)phenyl)propan-2-ol] | 8.52 | 8.76 | 9.35 | 8.44 |  |  | < 5.00 |  |  |  |  |  |  |  | 4120 nM | 57.4% | 72.3% | 61.9% | 
